According to patent US11951131B2, “Anti-SLAMF7 chimeric antigen receptors” (The United States of America, as represented by the …, priority 2018, dated 2024):
Entries after “also recorded” stand apart in the source; their conditions may differ.

How the values were obtained:
NGFR-K562 = experiment: IFN-gamma ELISA, CAR T cells with NGFR-K562 target cells; assay type: cell-based, human
Description: (§1) MM.1S is a SLAMF7^+ multiple myeloma cell line that was obtained from American Type Culture Collection (ATCC). A549 is a BCMA-negative lung cancer cell line (ATCC). TC71 is a BCMA-negative sarcoma cell line. CCRF-CEM, 293T, and A549 are SLAMF7-negative cell lines (ATCC). COL0207, HepG2, U251, Panc10.05, and TC71 are […] that were kind gifts from Dr. Steven Rosenberg, National Cancer Institute. SLAMF7-K562 are K562 cells (ATCC) which were transduced with the gene for full-length SLAMF7. SLAMF7-RPMI are RPMI8226 cells (ATCC) which were transduced with the gene for full-length SLAMF7. NGFR-K562 are K562 cells which were transduced with the gene for low-affinity nerve growth factor (Kochenderfer et al., J. Immunother., 32(7): 689-702 (2009)). All of the human samples mentioned were obtained from patients enrolled in IRB-approved clinical trials at the National Cancer Institute.
(§2) One-hundred thousand SLAMF7^+ or SLAMF7-negative target cells were combined with 100,000 CAR-transduced T cells in duplicate wells of a 96 well round bottom plate in 200 µL of AIM V™ medium (Invitrogen) plus 5% human serum. The plates were incubated at 37° C. for 18-20 hours. Following the incubation, ELISAs (enzyme-linked immunosorbent assays) for IFNγ were performed by using standard methods.
(§3) The T cells columns indicate whether T cells were transduced with Luc90-CD828Z, Luc63-CD828Z, or were untransduced. The % CAR^+ in Table B-1 was determined by staining the T cells with Protein L. Except for the % CAR^+ column, all values are pg/mL of IFN-gamma. T cells that were either untransduced or transduced with one of the indicated CARs were cultured with target cells overnight and a standard IFN-gamma ELISA was performed on the culture supernatant.
(§4) All values are pg/mL of IFN-gamma. T cells that were either untransduced or transduced with one of the indicated CARs were cultured with target cells overnight, and a standard IFN-gamma ELISA was performed on the culture supernatant.
(§5) The values in the cells are pg/mL of IFN-gamma. T cells that were either untransduced or transduced with one of the indicated CARs were cultured with target cells overnight, and a standard IFN-gamma ELISA was performed on the culture supernatant. The concentrations of 0, 50, or 200 ng/mL at the top of each column indicates the concentration of soluble SLAMF7 added to all T cell plus target cell overnight cultures in that column. The soluble SLAMF7 was added at the beginning of the overnight culture.

T cells only = experiment: IFN-gamma ELISA, T cells only (no target cells); assay type: cell-based, human
Protocol: as §2, §3, §4, §5

MM.1S = experiment: IFN-gamma ELISA, CAR T cells with MM.1S target cells; assay type: cell-based, human
Description: as §1, §2, §4

IC9-expressing T cells = experiment: 6-hour and 48-hour post-rimiducid T cell death analysis; assay type: cell-based, human; settings: for elimination of CAR T cells when AP1903 was added to the T-cell cultures: per construct, in words
Protocol: On day 8 of culture, 1 million T cells from cultures that were either untransduced or transduced with one of the anti-SLAMF7 CARs cells were suspended at 1×10^6 T cells/mL in AIM V™ media (Invitrogen) plus 300 IU of interleukin-2. One million cells were added to each of 4 wells of a 12-well plate. A different concentration of AP1903 (MedChem Express, Princeton, N.J.) from was added to each well. AP1903 is also referred to as rimiducid. The concentrations of AP1903 evaluated were: 0, 1, 10, or 100 ng/mL.
Six hours and 48 hours after these cultures were set up, the cells were counted, washed, and stained with Protein L as described above. Next, the cells were washed twice with PBS, re-suspended in Annexin V binding buffer (BD Biosciences), and incubated with allophycocyanin-conjugated Annexin V (BD Biosciences) and 7AAD (BD Biosciences) for 15 minutes (mins) at room temp. The cells were immediately analyzed by flow cytometry.

[1] = Signs of CAR T-cell-mediated toxicity in mice; assay type: in vivo; settings: mice after CAR T-cell infusion
Protocol: First, MM.1S human SLAMF7^+ multiple myeloma cell line tumors were established in immunodeficient mice. In this model, the MM.1S cells formed a solid cutaneous mass. Measurable tumors were allowed to develop over 7 days, and then the mice were treated with a single intravenous infusion of MSGV1-IC9-Luc90-CD828Z-transduced human T cells. NSG mice (NOD.Cg-Prkdc^scid Il2rg^tm1Wjl/SzJ) from The Jackson Laboratory, Bar Harbor, Me., were used. Mice received intradermal injections of 4×10^6 MM.1S cells. The cells were suspended in a 1:1 mixture of MATRIGEL™ gelatinous protein mixture (BD Biosciences) and PBS (Phosphate-buffered saline) for injection. Tumors were allowed to grow for 7 days, and then each mouse received a single intravenous infusion of human T cells that were transduced with one of 3 CARs: IC9-Luc90-CD828Z (suicide gene+anti-SLAMF7 CAR), Luc90-CD828Z (anti-SLAMF7 CAR alone), or a negative-control anti-CD19 CAR Hu19-CD828Z. A 4th group was left untreated. All groups included 5 mice. After CAR T-cell infusion, the tumors were measured with calipers every 3 days. The longest length and the length perpendicular to the longest length and the tumor thickness were multiplied together to obtain the tumor volume in mm^3. When the longest length reached 15 mm, mice were sacrificed. Animal studies were approved by the National Cancer Institute Animal Care and Use Committee. […]

Substance | IFN-gamma, target cells NGFR-K562 (NGFR-K562; Table B-2, SLAMF7-negative) [pg/mL] | IFN-gamma, target cells NGFR-K562 (NGFR-K562; Table C) [pg/mL] | IFN-gamma, target cells NGFR K562 0 ng/ml (NGFR-K562; Table D, soluble SLAMF7 added 0 ng/ml) [pg/mL] | IFN-gamma, target cells NGFR K562 50 ng/ml (NGFR-K562; Table D, soluble SLAMF7 added 50 ng/ml) [pg/mL] | IFN-gamma, target cells NGFR K562 200 ng/ml (NGFR-K562; Table D, soluble SLAMF7 added 200 ng/ml) [pg/mL] | IFN-gamma, T cells only (T cells only; Table B-2) [pg/mL] | IFN-gamma, T cells only (T cells only; Table C) [pg/mL] | IFN-gamma, T cells 0 ng/ml (T cells only; Table D, no target cells, soluble SLAMF7 0 ng/ml) [pg/mL] | IFN-gamma, T cells 50 ng/ml (T cells only; Table D, no target cells, soluble SLAMF7 50 ng/ml) [pg/mL] | IFN-gamma, T cells 200 ng/ml (T cells only; Table D, no target cells, soluble SLAMF7 200 ng/ml) [pg/mL] | IFN-gamma, target cells MM.1S (MM.1S; Table C) [pg/mL] | elimination of CAR T cells when AP1903 was added to the T-cell cultures (IC9-expressing T cells) | signs of CAR T-cell-mediated toxicity [1] | IFN-gamma, NGFR-K562 (NGFR-K562; Table E) [pg/mL] | IFN-gamma, T-cells Alone (T cells only; Table E) [pg/mL] | IFN-gamma, MM.1S (MM.1S; Table E) [pg/mL] | elimination of CAR^+ T cells, comparison of the two constructs (IC9-expressing T cells; IC9-Luc90-CD828Z compared with Luc90-CD828Z-IC9)
Luc90-CD828Z: anti-SLAMF7 CAR (SEQ ID NO: 27): murine Luc90 scFv, human CD8a hinge and TM, CD28 and CD3ζ domains; tested as transduced T cells | 45 | 26 | 267 | 223 | 224 | 29 | 33 | 172 | 160 | 41 | 4269 | efficiently eliminated | did not exhibit ruffled fur or decreased activity |  |  |  | 
IC9-Luc90-CD828Z: CAR plus suicide gene construct (SEQ ID NO: 31): IC9 suicide gene 5′ to the CAR, T2A, Luc90-CD828Z |  |  |  |  |  |  |  |  |  |  |  | efficiently eliminated | did not exhibit any signs of CAR T-cell-mediated toxicity; also recorded: did not exhibit ruffled fur or decreased activity; also recorded: no toxicity | 30 | 38 | 1849 | slightly superior
